Experimental data taken from patent publication US12350270B2, “Antimalarial agents” (Merck Sharp & Dohme LLC, priority 2019, dated 2025).
pEC50: −log10 of the molar value.

Tested on: parasites (ring stage, in human red blood cell culture)
Assay: Parasite LDH growth assay (antiparasite potency, Parasite Assay)
Type: cell-based, Plasmodium falciparum
Conditions: 0.7% rings, 2% haematocrit, 72 hours at 37° C., LDH readout of parasite growth
Experimental: Assessing Antiparasite Potency in a Parasite LDH Growth Assay (Parasite Assay)
The parasite stock was maintained at 4% haematocrit in RPMI-Hepes media buffered with sodium bicarbonate and supplemented with 5% heat inactivated human serum and 0.5% albumax.
On the day of assay set up, a blood smear of the parasite culture was Giemsa stained and counted. The parasitemia was adjusted to 0.7% rings and the haematocrit was diluted to 2% in RPMI-Hepes media buffered with sodium bicarbonate and supplemented with 5% heat inactivated human serum and 0.5% albumax. 30 ul of diluted parasites are then added into 10 ul of media+compound in pre-prepared Greiner TC assay plates. Parasite assay plates were placed in gassed humidified boxes in single layer and allowed to incubate at 37° C. for 72 hours. After 72 hours growth, assay plates are sealed with parafilm and frozen flat, in single file at −80° C. overnight. On the following day, assay plates are allowed to thaw at room temperature for 4 hours to which an LDH assay is performed to measure parasite growth.

In order of rising pEC50:
1. CCC1(CC)CC(=O)N([C@@H]2CCOc3ccc(C(=O)N[C@@H]4c5ccccc5OC(C(F)(F)F)C4O)cc32)C(=N)N1 (single isomer, unassigned) [Example 32B]  6.54
2. CC[C@]1(C)CC(=O)N([C@@H]2CCOc3ccc(C(=O)NC4c5cc(F)ccc5OCC4(C)O)cc32)C(=N)N1 (single isomer, unassigned) [Example 190A]  6.58
3. CC[C@]1(C)CC(=O)N(C2CC(C)Oc3ccc(C(=O)N[C@@H]4c5ccccc5OC[C@@]4(C)O)cc32)C(=N)N1 (single isomer, unassigned) [Example 181A]  6.72
4. CCC1C[C@@H](N2C(=N)NC(CC)(CC)CC2=O)c2cc(C(=O)N[C@@H]3c4ccccc4C[C@H]3O)ccc2O1 (single isomer, unassigned) [Example 9B]  6.77
5. CC1(C)CC(=O)N([C@@H]2CC(C)(C)Oc3ccc(C(=O)N[C@@H]4c5ccccc5CC4(C)O)cc32)C(=N)N1 (single isomer, unassigned) [Example 54B]  6.80
6. CCC1(CC)CC(=O)N([C@@H]2CCOc3ccc(C(=O)NC4c5ccccc5OCC4O)cc32)C(=N)N1 (single isomer, unassigned) [Example 8C]  6.92
7. CCC1(CC)CC(=O)N([C@@H]2CCOc3ccc(C(=O)NC4c5ccccc5OC4(C)CO)cc32)C(=N)N1 (single isomer, unassigned) [Example 176D]  6.94
8. CCC1(CC)CC(=O)N(C2c3cc(C(=O)N[C@@H]4c5ccccc5C[C@H]4O)ccc3OC2(C)CO)C(=N)N1 (single isomer, unassigned) [Example 178A]  6.97
9. CCC1(CC)CC(=O)N([C@@H]2CC(COC)Oc3ccc(C(=O)N[C@H]4CC(C)(C)Oc5ccccc54)cc32)C(=N)N1 (single isomer, unassigned) [Example 16B]  7.02
10. CCC1(CC)CC(=O)N([C@@H]2CCOc3ccc(C(=O)NC4c5ccccc5OCC4O)cc32)C(=N)N1 (single isomer, unassigned) [Example 8D]  7.07
11. CCC1(CC)C[C@@H](N2C(=N)NC(C)(C)CC2=O)c2cc(C(=O)N[C@@H]3c4ccccc4CC3(C)O)ccc2O1 (single isomer, unassigned) [Example 55B]  7.08
12. CCOC(=O)C1(C)Oc2ccccc2C1NC(=O)c1ccc2c(c1)[C@H](N1C(=N)NC(CC)(CC)CC1=O)CCO2 (single isomer, unassigned) [Example 65A]  7.17
13. CCC1(CC)CC(=O)N([C@@H]2CCOc3ccc(C(=O)NC4c5ccccc5OC4(C)COC)cc32)C(=N)N1 (single isomer, unassigned) [Example 64C]  7.19
14. CCC1(CC)CC(=O)N([C@@H]2CCOc3ccc(C(=O)NC4c5ccccc5OC4(C)COC)cc32)C(=N)N1 (single isomer, unassigned) [Example 64D]  7.38
15. CCC1(CC)CC(=O)N([C@@H]2CCOc3ccc(C(=O)NC4c5ccccc5OC4(C)CO)cc32)C(=N)N1 (single isomer, unassigned) [Example 176A]  7.53
16. CCOC(=O)C1(C)Oc2ccccc2C1NC(=O)c1ccc2c(c1)[C@H](N1C(=N)NC(CC)(CC)CC1=O)CCO2 (single isomer, unassigned) [Example 65C]  7.59
17. CCC1(CC)C[C@@H](N2C(=N)NC(C)(C)CC2=O)c2cc(C(=O)N[C@@H]3c4ccccc4CC3(C)O)ccc2O1 (single isomer, unassigned) [Example 55A]  7.61
18. CCC1(CC)CC(=O)N([C@@H]2CCOc3ccc(C(=O)NC4c5ccccc5OCC4O)cc32)C(=N)N1 (single isomer, unassigned) [Example 8B]  7.66
19. CC(C)[C@]1(C)CC(=O)N([C@@H]2CC(C)(C)Oc3ccc(C(=O)N[C@@H]4c5ccccc5CC4(C)O)cc32)C(=N)N1 (single isomer, unassigned) [Example 43B]  7.68
20. CCC1(CC)CC(=O)N([C@@H]2CCOc3ccc(C(=O)NC4c5ccccc5OC4(C)C)cc32)C(=N)N1 (single isomer, unassigned) [Example 133B]  7.77
21. CCC1(CC)CC(=O)N([C@@H]2CCOc3ccc(C(=O)NC4c5ccccc5OC4(C)COC)cc32)C(=N)N1 (single isomer, unassigned) [Example 64A]  7.92
22. CCC1(CC)CC(=O)N([C@@H]2CCOc3ccc(C(=O)NC4c5ccccc5OCC4O)cc32)C(=N)N1 (single isomer, unassigned) [Example 8A]  8.00
23. CC(C)[C@]1(C)CC(=O)N([C@@H]2CC(C)(C)Oc3ccc(C(=O)N[C@@H]4c5ccccc5CC4(C)O)cc32)C(=N)N1 (single isomer, unassigned) [Example 43A]  8.09
24. CCC1(CC)CC(=O)N([C@@H]2CCOc3ccc(C(=O)N[C@@H]4c5ccccc5OC(C(F)(F)F)C4O)cc32)C(=N)N1 (single isomer, unassigned) [Example 32A]  8.10
25. CC[C@]1(C)CC(=O)N(C2CC(C)Oc3ccc(C(=O)N[C@@H]4c5ccccc5OC[C@@]4(C)O)cc32)C(=N)N1 (single isomer, unassigned) [Example 181B]  8.10
26. CCC1(CC)CC(=O)N([C@H]2c3cc(C(=O)N[C@H]4CC(C)(C)Oc5ccccc54)ccc3O[C@]2(C)COC)C(=N)N1 (single isomer, unassigned) [Example 74B]  8.19
27. CCC1(CC)CC(=O)N([C@@H]2CC(C)(C)Oc3ccc(C(=O)N[C@@H]4c5ccccc5CC4(C)O)cc32)C(=N)N1 (single isomer, unassigned) [Example 42B]  8.49
28. CCC1(CC)CC(=O)N([C@@H]2CCOc3ccc(C(=O)N[C@@H]4c5ccccc5CC4(C)O)cc32)C(=N)N1 (single isomer, unassigned) [Example 44B]  8.55
29. CCOC(=O)C1(C)Oc2ccccc2C1NC(=O)c1ccc2c(c1)[C@H](N1C(=N)NC(CC)(CC)CC1=O)CCO2 (single isomer, unassigned) [Example 65B]  8.59
30. CC[C@]1(C)CC(=O)N([C@@H]2CCOc3ccc(C(=O)NC4c5cc(F)ccc5OCC4(C)O)cc32)C(=N)N1 (single isomer, unassigned) [Example 190B]  8.59
31. CCC1(CC)CC(=O)N([C@@H]2CCOc3ccc(C(=O)NC4c5ccccc5OC4(C)CO)cc32)C(=N)N1 (single isomer, unassigned) [Example 176C]  8.62
32. CCC1(CC)CC(=O)N(C2c3cc(C(=O)N[C@@H]4c5ccccc5C[C@H]4O)ccc3OC2(C)CO)C(=N)N1 (single isomer, unassigned) [Example 178B]  8.66
33. CCC1(CC)CC(=O)N([C@@H]2CCOc3ccc(C(=O)N[C@H]4c5ccccc5OCC4(C)O)cc32)C(=N)N1 (single isomer, unassigned) [Example 60B]  8.77
34. CCC1(CC)CC(=O)N([C@H]2c3cc(C(=O)N[C@@H]4c5ccccc5OC(C)(C)[C@H]4O)ccc3OC2(C)COC)C(=N)N1 (single isomer, unassigned) [Example 73B]  8.77
35. CCC1(CC)CC(=O)N([C@@H]2CCOc3ccc(C(=O)NC4c5ccccc5OC4(C)C)cc32)C(=N)N1 (single isomer, unassigned) [Example 133A]  8.85
36. CCC1(CC)CC(=O)N([C@@H]2CC(C)(C)Oc3ccc(C(=O)N[C@@H]4c5ccccc5CC4(C)O)cc32)C(=N)N1 (single isomer, unassigned) [Example 42A]  9.00
37. CCC1C[C@@H](N2C(=N)NC(CC)(CC)CC2=O)c2cc(C(=O)N[C@@H]3c4ccccc4C[C@H]3O)ccc2O1 (single isomer, unassigned) [Example 9A]  9.05
38. CCC1(CC)CC(=O)N([C@@H]2CCOc3ccc(C(=O)NC4c5ccccc5OC4(C)COC)cc32)C(=N)N1 (single isomer, unassigned) [Example 64B]  9.05
39. CCC1C[C@@H](N2C(=N)NC(CC)(CC)CC2=O)c2cc(C(=O)NC3c4ccccc4OC(C)(C)C3O)ccc2O1 (single isomer, unassigned) [Example 13A]  9.10
40. CCC1(CC)CC(=O)N([C@@H]2CC(COC)Oc3ccc(C(=O)N[C@H]4CC(C)(C)Oc5ccccc54)cc32)C(=N)N1 (single isomer, unassigned) [Example 16A]  9.22
41. CCC1(CC)CC(=O)N([C@H]2c3cc(C(=O)N[C@@H]4c5ccccc5OC(C)(C)[C@H]4O)ccc3OC2(C)COC)C(=N)N1 (single isomer, unassigned) [Example 73A]  9.52
42. CCC1(CC)CC(=O)N([C@H]2c3cc(C(=O)N[C@H]4CC(C)(C)Oc5ccccc54)ccc3O[C@]2(C)COC)C(=N)N1 (single isomer, unassigned) [Example 74A]  9.52

Same assay, conditions: Plasmodium falciparum, Erythrocyte, 72 h, 0.7% rings, 2% haematocrit, 72 hours at 37° C., LDH readout of parasite growth

In order of falling pEC50:
1. CC(C)[C@]1(C)CC(=O)N([C@@H]2CCOc3ccc(C(=O)NC4c5ccccc5OC(C)(C)C4O)cc32)C(=N)N1 (single isomer, unassigned) [Example 11A]  9.05
2. CCC1(CC)CC(=O)N([C@@H]2CCOc3ccc(C(=O)N[C@H]4c5ccccc5OCC4(C)O)cc32)C(=N)N1 (single isomer, unassigned) [Example 60A]  8.89
3. CCC1(CC)CC(=O)N([C@@H]2CCOc3ccc(C(=O)N[C@@H]4c5ccccc5CC4(C)O)cc32)C(=N)N1 (single isomer, unassigned) [Example 44A]  8.82
4. CCC1(CC)CC(=O)N([C@@H]2CC(COC)Oc3ccc(C(=O)N[C@@H]4c5ccccc5C[C@H]4O)cc32)C(=N)N1 (single isomer, unassigned) [Example 17A]  8.57
5. CC1(C)CC(=O)N([C@@H]2CC(C)(C)Oc3ccc(C(=O)N[C@@H]4c5ccccc5CC4(C)O)cc32)C(=N)N1 (single isomer, unassigned) [Example 54A]  6.72
